Three molecules from patent US20040138311A1, “Medicament containing an effector of the glutathione metabolism together with $g(a)-lipoic acid for treating diabetes mellitus” (priority 2001, published 2004) can be followed below.

Assay type in all cases: cell-based, human
Test [1] concerns T-lymphocytes. Put plainly: Activation markers CD69, CD25, CD71 of PHA-stimulated T-lymphocytes (activation index). Particulars: thiol-deficient cells, 1.0 μg/ml phytohemagglutinin, culture time 72 hours; normal = 1.0. How it is done:
In the cultivation experiment described with reference to Example 1, human T-lymphocytes were stimulated with 1.0 μg/ml phytohemagglutinin. In a culture time of 72 hours, specific markers of the cellular activation were quantitatively detected using cytofluorimetery by means of monoclonal antibodies. The influence of the combinations used according to the invention on the activation markers CD69 (early activation antigen), CD25 (intermediate activation antigen) and CD71 (late activation antigen) of T-lymphocytes was measured. […] It can thus be concluded that the normalization of the cellular thiol status achieved by the combined use of α-lipoic acid and the respective effectors of the glutathione metabolism is accompanied by a restitution of cell function.

The test system of test [2] is peritoneal macrophages. Nature of the test: Phagocytosis capacity of peritoneal macrophages (cytofluorimetric test with opsonized fluorochrome-marked bacteria). Particulars: treatment time of 6 days. The method, then:
Peritoneal macrophages were isolated using a method analogous to the method described in Example 3 and cultivated ex vivo. The phagocytosis capacity was determined by a cytofluorimetric test on the single-cell level. The macrophages were thereby co-cultivated with opsonized and fluorochrome-marked bacteria. The number of bacteria absorbed during a defined period was determined quantitatively by means of the fluorescence intensity in the macrophages and was used as a measurement for their phagocytosis capacity. The influence of the combinations used according to the invention on the phagocytosis capacity of the peritoneal macrophages after a treatment time of 6 days is presented in the following table.

For test [3], the system named is peritoneal macrophages. Put plainly: Degree of differentiation and activation of peritoneal macrophages (CD15, CD11c, CD69, CD71 cytofluorimetry). Particulars: Control = 1.0; after 6 days of incubation; α-lipoic acid 50 μM, ambroxol 10 μM, enalapril 5 μM, captopril 10 μM. The method, then:
Peritoneal macrophages were isolated from patients during renal replacement therapy using the method described in Example 3 and cultivated in the presence of the combinations of α-lipoic acid and effectors of the glutathione metabolism according to the invention. After 6 days of incubation, the degree of differentiation of the peritoneal macrophages was determined by means of the expression of the cell surface antigens CD15 and CD11c, and the degree of cellular activation was determined using cytofluorimetry by means of the co-expression of the activation antigens CD69 to CD15-positive cells and CD71 to […] cells.

Test [4] relates to peritoneal macrophages. Described as above. Particulars: Control = 1.0; after 6 days of incubation; α-lipoic acid 50 μM, ambroxol 10 μM, enalapril 5 μM, captopril 10 μM. This is another data set of the same source.
Test [5] deals with peritoneal macrophages. Nature of the test: Intracellular thiol expression of peritoneal macrophages from peritoneal dialysis patients. The note with it: time kinetic over 14 days. How it is done:
Peritoneal macrophages were isolated from the effluate of peritoneal dialysis of patients with a high degree of renal insufficiency, absorbed in a cell culture medium and incubated in a gasifying incubation cabinet at 37° C., a relative humidity of 98% and 7.5% relative air-CO2 content. To investigate the influence of the combinations used according to the invention on the thiol status of the peritoneal macrophages, individual fractions were treated with α-lipoic acid, the effectors of the glutathione metabolism ambroxol or the ACE inhibitor enalapril and with the combination of α-lipoic acid/ambroxol or α-lipoic acid/enalapril, while an additional fraction was maintained as an untreated control. The cellular thiol status was determined using the measurement methods described in Example 1. FIG. 4 illustrates the effect of the combination of α-lipoic acid and ambroxol (FIG. 4a) and α-lipoic acid and enalapril (FIG. 4b) in a time kinetic over 14 days […].

Test [6] relates to lymphocytes (peripheral immune cells). Nature of the test: Membrane-bound thiol expression of thiol-depleted peripheral immune cells (CMTMR flow cytofluorimetry). The note with it: α-lipoic acid 50 μM, captopril 10 μM, combination at the same concentrations. The method, then: Peripheral immune cells from healthy donors (n=9) were isolated from the peripheral blood. The major fraction of the resulting total population of mononuclear cells regularly represents lymphocytes with a relative percentage of approximately 90%, depending on the donor. 10% of the mononuclear cells are represented by monocytes. The mononuclear cells obtained were absorbed in special cell culture media and incubated in a gasifying incubation cabinet at 37° C., a relative humidity of 98% and 5% relative air-CO2 content. […] To test the influence of the combinations used according to the invention on the thiol status of thiol-deficient immune cells, these cells were artificially thiol-depleted. This process was carried out using proven methods by cultivation in thiol-deficient media (RPMI 1603). Comparative cultures using complete media (RPMI) 1640) were used to define the best possible normal value under the culture conditions. The expression of membrane-bound thiol groups was also determined using flow cytofluorimetry. In this case, chloromethyltetramethyl rhodamine (CMTMR) was used as thiol conjugate under the conditions of a blocked membrane potential and an inhibited diffusion capacity of the cells. The fluorescence intensity of the fluorochrome molecules bound to the cell membrane is in turn proportional to the number of thiol groups on the cell surface. The results obtained with this experimental investigation of the influence of the combinations according to the invention on the expression of cell membrane bound thiols are presented in FIG. 2 for the combinations of α-lipoic acid and ambroxol (FIG. 2a) and α-lipoic acid and enalapril (FIG. 2b). The following table presents the results for the combination of α-lipoic acid and captopril.

Structures can show the parent of a compound that is named as a salt.

For `CCOC(=O)[C@H](CCc1ccccc1)NC(C)C(=O)N1CCCC1C(=O)O` (stereo in doubt) [Enalapril, 1-{N-[(S)-1-ethoxycarbonyl-3-phenylpropyl]-L-alanyl}-L-prolin], the “Effect on the activation index of T-lymphocytes (CD69, CD25, CD71; in words)” value in test [1] is reported as “equivalent to α-lipoic acid only in the case of the effectuation of the CD25 antigen”. In addition, the “Phagocytosis rate higher than that of the untreated control by a factor of” value in test [2] is 1.53. In test [3], the CD11c expression stood at 1.23 ± 0.22, the CD15/69 co-expression is on record as 1.19 ± 0.12 and the CD15 expression is given as 1.21 ± 0.22. The same molecule gave a CD11c/71 co-expression in test [4] of 1.10 ± 0.14.

In the case of `Nc1c(Br)cc(Br)cc1CNC1CCC(O)CC1` (centres unmarked) [Ambroxol, hydrochloride], in test [1], the “Effect on the activation index of T-lymphocytes (CD69, CD25, CD71; in words)” value is on record as “does not have any influence on one of the three activation markers”. For the same molecule, the “Effect on cellular thiol expression of peritoneal macrophages (in words)” value in test [5] was “had no effect”. In addition, the “Phagocytosis rate higher than that of the untreated control by a factor of” value in test [2] worked out at 1.35. In test [3], the CD11c expression came to 1.01 ± 0.09 and the CD15 expression is listed as 0.98 ± 0.13. For the same molecule, in test [4], the CD11c/71 co-expression is on record as 0.96 ± 0.1.

As to `C[C@H](CS)C(=O)N1CCC[C@H]1C(=O)O` [Captopril, 1-[(2S)-3-mercapto-2-methylpropionyl]-L-prolin], the Membrane-resistant thiol expression came to 2.37 ± 0.45 mfiBeads/Ratio in test [6] (length of culture 0 d); 2.63 ± 0.39 mfiBeads/Ratio in test [6] (length of culture 1 d); 2.54 ± 0.41 mfiBeads/Ratio in test [6] (length of culture 2 d); 2.52 ± 0.38 mfiBeads/Ratio in test [6] (length of culture 3 d); 2.50 ± 0.41 mfiBeads/Ratio in test [6] (length of culture 4 d); 2.46 ± 0.50 mfiBeads/Ratio in test [6] (length of culture 6 d). Also, the Membrane-resistant thiol expression in test [6] (length of culture 8 d) amounted to 2.01 ± 0.39 mfiBeads/Ratio; in test [6] (length of culture 10 d) it was 1.68 ± 0.29 mfiBeads/Ratio; in test [6] (length of culture 12 d), 1.02 ± 0.51 mfiBeads/Ratio; in test [6] (length of culture 14 d) it was 0.99 ± 0.46 mfiBeads/Ratio. Further, in test [3], the CD11c expression was 1.26 ± 0.24. Further, the CD15/69 co-expression in test [3] is listed as 1.69 ± 0.21. Further, the CD15 expression in test [3] came out at 1.19 ± 0.14. Also, the CD11c/71 co-expression in test [4] is recorded as 1.52 ± 0.16.
